Laboratory results from US9115134B2, “6-triazolopyridazine sulfanyl benzothiazole derivatives as MET inhibitors” (SANOFI, priority 2007, dated 2015).
Where a name gives a salt, the structure may show the parent alone.

Assays:
MET [1] = target: T1, MET (Homo sapiens, UniProt P08581); test: Test B: Inhibition of the autophosphorylation of MET; ELISA technique (pppY1230,1234,1235) in MKN45 cells; assay type: cell-based; parameters: Seed MKN45 cells into 96-well plates (Cell coat BD polylysine) at 20 000 cells/well; endogenous in cells; host or cells: MKN45 cells; conditions: 1 h treatment, PhosphoMET ELISA
Description: Leave to adhere for 24 hours in an incubator.
The cells are treated the day after seeding with the products at 6 concentrations in duplicate for 1 h. At least 3 control wells are treated with the same final amount of DMSO.
Product dilution: Stock at 10 mM in pure DMSO—range from 10 mM to 30 μM with an increment of 3 in pure DMSO—intermediate 1/50 dilutions in culture medium and then removal of 10 μl added directly to the cells (200 μl): final range of 10 000 to 30 nM.
At the end of the incubation, carefully remove the supernatant and rinse with 200 μl of PBS. Next, place 100 μl of lysis buffer directly in the wells on ice and incubate at 4° C. for 30 minutes. Lysis buffer: 10 mM Tris HCl, pH7.4, 100 mM NaCl, 1 mM EDTA, 1 mM EGTA, 1% Triton X-100, 10% glycerol, 0.1% SDS, 0.5% deoxycholate, 20 mM NaF, 2 mM Na3VO4, 1 mM PMSF and cocktail of antiproteases.
The 100 μl of lysates are transferred into a V-bottomed polypropylene plate and the ELISA is performed immediately, or the plate is frozen at −80° C. • b) PhosphoMET ELISA BioSource Kit KH00281
Into each well of the kit plate, add 70 μl of kit dilution buffer+30 μL of cell lysate or 30 μl of lysis buffer for the blanks. Incubate for 2 h with gentle agitation at ambient temperature.
Rinse the wells 4 times with 400 μl of kit washing buffer. Incubate with 100 μl of anti-phospho MET antibody for 1 hour at ambient temperature.
Rinse the wells 4 times with 400 μl of kit washing buffer. Incubate with 100 μl of anti-rabbit HRP antibody for 30 minutes at ambient temperature (except for the wells of chromogen alone).
Rinse the wells 4 times with 400 μl of kit washing buffer. Introduce 100 μL of chromogen and incubate for 30 minutes in the dark at ambient temperature.
(§1) Stop the reaction with 100 μl of stop solution. Read without delay at […], 0.1 second on Wallac Victor plate reader. • C) Test C: Measurement of cell proliferation by ^14c-thymidine pulse
Target sequence in this assay (P08581 25-1390): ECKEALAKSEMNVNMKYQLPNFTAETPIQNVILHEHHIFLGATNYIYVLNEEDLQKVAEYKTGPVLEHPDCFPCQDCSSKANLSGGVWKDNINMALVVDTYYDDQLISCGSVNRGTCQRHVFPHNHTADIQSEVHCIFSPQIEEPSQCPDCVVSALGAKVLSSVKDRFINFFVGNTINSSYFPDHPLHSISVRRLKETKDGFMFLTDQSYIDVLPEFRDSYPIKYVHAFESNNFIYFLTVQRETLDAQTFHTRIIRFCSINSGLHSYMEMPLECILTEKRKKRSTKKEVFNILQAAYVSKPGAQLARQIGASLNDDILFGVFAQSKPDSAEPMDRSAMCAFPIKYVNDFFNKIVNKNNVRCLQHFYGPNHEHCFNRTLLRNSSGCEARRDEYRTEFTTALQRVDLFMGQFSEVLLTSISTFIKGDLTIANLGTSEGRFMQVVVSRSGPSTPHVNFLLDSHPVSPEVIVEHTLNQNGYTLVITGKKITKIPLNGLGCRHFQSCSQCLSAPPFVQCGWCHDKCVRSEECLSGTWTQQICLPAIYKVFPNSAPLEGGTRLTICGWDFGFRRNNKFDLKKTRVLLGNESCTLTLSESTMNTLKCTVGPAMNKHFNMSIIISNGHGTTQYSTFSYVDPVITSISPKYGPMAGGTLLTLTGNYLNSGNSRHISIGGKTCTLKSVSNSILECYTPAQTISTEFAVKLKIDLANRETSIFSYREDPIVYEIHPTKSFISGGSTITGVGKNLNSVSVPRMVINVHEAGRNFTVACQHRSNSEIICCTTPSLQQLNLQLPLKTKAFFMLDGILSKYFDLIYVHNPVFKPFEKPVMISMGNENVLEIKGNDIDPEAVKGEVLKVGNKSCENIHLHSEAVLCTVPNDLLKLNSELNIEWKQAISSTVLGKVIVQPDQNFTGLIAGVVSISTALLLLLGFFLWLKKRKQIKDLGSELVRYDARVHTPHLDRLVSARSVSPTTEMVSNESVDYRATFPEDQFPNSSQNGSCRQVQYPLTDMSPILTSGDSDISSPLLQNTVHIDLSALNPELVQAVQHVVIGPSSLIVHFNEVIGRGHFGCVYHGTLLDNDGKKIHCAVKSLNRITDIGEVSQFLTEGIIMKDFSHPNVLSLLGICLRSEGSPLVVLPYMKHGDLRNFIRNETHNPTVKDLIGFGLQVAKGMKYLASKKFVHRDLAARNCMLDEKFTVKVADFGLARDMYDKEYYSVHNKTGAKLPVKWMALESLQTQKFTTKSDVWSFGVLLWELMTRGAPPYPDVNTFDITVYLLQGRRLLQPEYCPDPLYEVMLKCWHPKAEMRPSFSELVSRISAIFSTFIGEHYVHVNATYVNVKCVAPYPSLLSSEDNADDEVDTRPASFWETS

MET [2] = target: T1, MET; test: Test A: HTRF MET assay in 96-well format; assay type: biochemical; parameters: The His-Tev-MET (956-1390) recombinant DNA in pFastBac (Invitrogen) is transfected into insect cells; His tag (N, cleaved yes); TEV cleavage site (N); made in house; host or cells: SF21 insect cells (baculovirus, pFastBac); conditions: MET 5 nM, 10 μM ATP
Description: I) Expression and Purification of MET, Cytoplasmic Domain
The His-Tev-MET (956-1390) recombinant DNA in pFastBac (Invitrogen) is transfected into insect cells, and after several viral amplification steps, the final baculovirus stock is tested for the expression of the protein of interest.
After infection for 72 h at 27° C. with the recombinant virus, the SF21 cell cultures are harvested by centrifugation and the cell pellets are stored at −80° C.
The cell pellets are resuspended in lysis buffer (buffer A [50 mM HEPES, pH 7.5, 250 mM NaCl, 10% glycerol, 1 mM TECP]; +cocktail of protease inhibitors, Roche Diagnostics, without EDTA, ref 1873580), stirred at 4° C. until the mixture is homogeneous and then lyzed mechanically using a “Dounce” type apparatus.
After centrifugation, the lysis supernatant is incubated for 2 h at 4° C. with nickel chelate resin (His-Trap 6 Fast Flow™, GE HealthCare). After washing with 20 volumes of buffer A, the suspension is packed into a column, and the proteins are eluted with a gradient of buffer B ([…]+290 mM imidazole).
The fractions containing the protein of interest for the purpose of electrophoretic analysis (SDS PAGE) are combined, concentrated by ultrafiltration (10 kDa cut-off) and injected onto an exclusion chromatography column (Superdex™ 200, GE HealthCare) equilibrated in buffer A.
After enzymatic cleavage of the histidine tag, the protein is reinjected onto a new IMAC nickel chelate chromatography column (His-Trap 6 Fast Flow™, GE HealthCare) equilibrated in buffer A. The fractions eluted with a gradient of buffer B and containing the protein of interest after electrophoresis (SDS PAGE) are finally combined and conserved at −80° C.
For the production of autophosphorylated protein, the previous fractions are incubated for 1 h at ambient temperature after the addition of 2 mM ATP, 2 mM MgCl2, and 4 mM Na3VO4. After the reaction has been stopped with 5 mM of EDTA, the reaction mixture is injected onto a HiPrep desalifying column (GE HealthCare) preequilibrated in buffer A+4 mM Na3VO4, and the fractions containing the protein of interest (SDS PAGE analysis) are combined and stored at −80° C. The degree of phosphorylation is verified by mass spectrometry (LC-MS) and by peptide mapping.
• A) Test A: HTRF MET assay in 96-well format
MET at a final concentration of 5 nM is incubated in a final volume of 50 μl of enzymatic reaction in the presence of the test molecule (for a final concentration range of from 0.17 nM to 10 μM, 3% DMSO final concentration) in 10 mM MOPS buffer, pH 7.4, 1 mM DTT, 0.01% Tween 20. The reaction is initiated with the substrate solution to obtain final concentrations of 1 μg/ml poly-(GAT), 10 μM ATP and 5 mM MgCl2. After incubation for 10 min at ambient temperature, the reaction is stopped with a 30 μl mix so as to obtain a final solution of 50 mM Hepes pH 7.5, 500 mM potassium fluoride, 0.1% BSA and 133 mM EDTA in the presence of 80 ng of streptavidin 61SAXLB Cis-Bio Int. and 18 ng of anti-phosphotyrosine Mab PT66-Europium Cryptate per well. After incubation for 2 hours at ambient temperature, the reading is taken at 2 wavelengths, 620 nm and 665 nm, on a reader for the TRACE/HTRF technique and the % inhibition is calculated from the 665/620 ratios.
Target sequence in this assay (P08581 956-1390): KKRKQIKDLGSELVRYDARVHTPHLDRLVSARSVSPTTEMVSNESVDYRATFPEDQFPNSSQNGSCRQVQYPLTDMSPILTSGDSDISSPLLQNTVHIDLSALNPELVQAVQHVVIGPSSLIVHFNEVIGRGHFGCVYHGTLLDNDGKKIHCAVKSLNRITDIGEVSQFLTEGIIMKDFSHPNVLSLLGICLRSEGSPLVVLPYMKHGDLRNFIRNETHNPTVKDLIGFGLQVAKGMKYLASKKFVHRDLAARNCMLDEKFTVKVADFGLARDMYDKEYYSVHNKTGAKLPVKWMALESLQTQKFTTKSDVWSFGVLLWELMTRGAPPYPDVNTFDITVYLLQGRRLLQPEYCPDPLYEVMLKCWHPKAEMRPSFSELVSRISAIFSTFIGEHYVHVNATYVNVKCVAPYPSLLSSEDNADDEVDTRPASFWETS

[3] = tested on: HCT116 cells, MKN45 cells; test: Test C: Measurement of cell proliferation by 14C-thymidine pulse; assay type: cell-based; conditions: 14C-thymidine incorporation, 96 h of treatment; cell line not given
Description: as §1
The cells are seeded into Cytostar 96-well plates in 180 μl for 4 hours at 37° C. and 5% CO2: HCT116 cells at a rate of 2500 cells per well in DMEM medium+10% foetal calf serum+1% L-glutamine and MKN45 cells at a rate of 7500 cells per well in RPMI medium+10% foetal calf serum+1% L-glutamine. After these 4 hours of incubation, the products are added in 10 μl as a 20-fold concentrated solution according to the dilution method mentioned for the ELISA. The products are tested at 10 concentrations in duplicate from 10 000 nM to 0.3 nM with an increment of 3.
After treatment for 72 h, add 10 μl of ^14C-thymidine at 10 μCi/ml to obtain 0.1 μCi per well. The ^14C-thymidine incorporation is measured on a Micro-Beta machine (Perkin-Elmer) after 24 hours of pulse and 96 h of treatment.
All the steps of the assay are automated on BIOMEK 2000 or TECAN stations.

| IC50 (MET [1]) [µM] | IC50 (MET [2]) [µM] | IC50 [3] [µM] | Compound |
| --- | --- | --- | --- |
| 0.1 to 0.5 | < 0.1 | < 1 | CC(=O)Nc1nc2ccc(Sc3nnc4ccc(N5CCOCC5)nn34)cc2s1 [Example 18, N-(6-{[6-(Morpholin-4-yl)[1,2,4]triazolo[4,3-b]pyridazin-3-yl]sulphanyl}-1,3-benzothiazol-2-yl)acetamide] |
| < 0.1 | < 0.1 | < 1 | CN1CCN(c2ccc3nnc(Sc4ccc5nc(NC(=O)OC(C)(C)C)sc5c4)n3n2)CC1 [Example 19, 1,1-Dimethylethyl (6-{[6-(4-methylpiperazin-1-yl)[1,2,4]triazolo[4,3-b]pyridazin-3-yl]sulphanyl}-1,3-benzothiazol-2-yl)carbamate hydrochloride] |
| < 0.1 | < 0.1 | < 1 | O=C(NCCN1CCOCC1)Nc1nc2ccc(Sc3nnc4ccc(-n5ccnc5)nn34)cc2s1 [Example 20, 1-(6-{[6-(1H-Imidazol-1-yl)[1,2,4]triazolo[4,3-b]pyridazin-3-yl]sulphanyl}-1,3-benzothiazol-2-yl)-3-[2-(morpholin-4-yl)ethyl]urea] |
| 0.1 to 0.5 | < 0.1 | < 1 | COc1ccc2nnc(Sc3ccc4nc(NC(=O)OC(C)(C)C)sc4c3)n2n1 [Example 21, 1,1-Dimethylethyl {6-[(6-methoxy[1,2,4]triazolo[4,3-b]pyridazin-3-yl)sulphanyl]-1,3-benzothiazol-2-yl}carbamate] |
| 0.1 to 0.5 | < 0.1 | < 1 | CC(C)(C)OC(=O)Nc1nc2ccc(Sc3nnc4ccc(-n5ccnc5)nn34)cc2s1 [Example 22, 1,1-Dimethylethyl (6-{[6-(1H-imidazol-1-yl)[1,2,4]triazolo[4,3-b]pyridazin-3-yl]sulphanyl}-1,3-benzothiazol-2-yl)carbamate] |
| < 0.1 | < 0.1 | < 1 | COc1ccc2nnc(Sc3ccc4nc(NC(=O)NCCN5CCOCC5)sc4c3)n2n1 [Example 23, 1-{6-[(6-Methoxy[1,2,4]triazolo[4,3-b]pyridazin-3-yl)sulphanyl]-1,3-benzothiazol-2-yl}-3-[2-(morpholin-4-yl)ethyl]urea] |
| < 0.1 | < 0.1 | < 1 | COCCNc1ccc2nnc(Sc3ccc4nc(NC(=O)OC(C)(C)C)sc4c3)n2n1 [Example 24, 1,1-Dimethylethyl[6-({6-[(2-methoxyethyl)amino][1,2,4]triazolo[4,3-b]pyridazin-3-yl}sulphanyl)-1,3-benzothiazol-2-yl]carbamate] |

The next lines start with the compound.

| Compound | IC50 (MET [1]) [µM] | IC50 (MET [2]) [µM] | IC50 [3] [µM] |
| --- | --- | --- | --- |
| O=C(Nc1nc2ccc(Sc3nnc4ccc(-c5ccc(F)cc5)nn34)cc2s1)OCCN1CCOCC1 [Example 12, 2-Morpholin-4-ylethyl (6-{[6-(4-fluorophenyl)[1,2,4]triazolo[4,3-b]pyridazin-3-yl]sulphanyl}-1,3-benzothiazol-2-yl)carbamate] | < 0.1 | < 0.1 | < 1 |
| CN1CCN(CCNC(=O)Nc2nc3ccc(Sc4nnc5n4N=C(c4ccc(F)cc4)CC5)cc3s2)CC1 [Example 13, 1-(6-{[6-(4-Fluorophenyl)-7,8-dihydro[1,2,4]triazolo[4,3-b]pyridazin-3-yl]sulphanyl}-1,3-benzothiazol-2-yl)-3-[2-(4-methylpiperazin-1-yl)ethyl]urea] | < 0.1 | < 0.1 | < 1 |
| CN1CCN(CCNC(=O)Nc2nc3ccc(Sc4nnc5ccc(-c6ccc(F)cc6)nn45)cc3s2)CC1 [Example 14, 1-(6-{[6-(4-Fluorophenyl)[1,2,4]triazolo[4,3-b]pyridazin-3-yl]sulphanyl}-1,3-benzothiazol-2-yl)-3-[2-(4-methylpiperazin-1-yl)ethyl]urea] | < 0.1 | < 0.1 | < 1 |
| O=C(CCCN1CCOCC1)Nc1nc2ccc(Sc3nnc4ccc(-c5ccc(F)cc5)nn34)cc2s1 [Example 15, N-(6-{[6-(4-Fluorophenyl)[1,2,4]triazolo[4,3-b]pyridazin-3-yl]sulphanyl}-1,3-benzothiazol-2-yl)-4-morpholin-4-ylbutanamide] | < 0.1 | < 0.1 | < 1 |
| CC(C)(C)OC(=O)Nc1nc2ccc(Sc3nnc4ccc(N5CCOCC5)nn34)cc2s1 [Example 16, 1,1-Dimethylethyl (6-{[6-(morpholin-4-yl)[1,2,4]triazolo[4,3-b]pyridazin-3-yl]sulphanyl}-1,3-benzothiazol-2-yl)carbamate] | < 0.1 | < 0.1 | < 1 |
| CCN(CC)CCNC(=O)Nc1nc2ccc(Sc3nnc4ccc(-c5ccc(F)cc5)nn34)cc2s1 [Example 17, 1-[2-(Diethylamino)ethyl]-3-(6-{[6-(4-fluorophenyl)[1,2,4]triazolo[4,3-b]pyridazin-3-yl]sulphanyl}-1,3-benzothiazol-2-yl)urea] | < 0.1 | < 0.1 | < 1 |
